Measured values taken from patent US20180363011A1, “MICROORGANISMS AND USE THEREOF FOR THE PRODUCTION OF DIACIDS” (FONDS DE DEVELOPPEMENT DES FILIERES DES OLEAGINEUX ET DES …, priority 2015, published 2018).

Key:
[1] = test system: ALK5 (Alk5p, cytochrome P450 CYP52); assay: In vitro enzymatic assay: conversion of radiolabeled fatty acids by microsomes of S. cerevisiae WAT11 expressing ALK5 (TLC); conditions: yeast microsomes, NADPH; for Degree of conversion (%): gene ALK5, substrate 100 μM, ND: not detectable
Experimental: (§1) In order to confirm their hypotheses according to which these enzymes catalyze fatty acids by oxygenation reaction, the inventors performed a screening using microsomes of S. cerevisiae WAT11 yeast transformed with 6 of the genes of the CYP52 family, cloned into Yarrowia lipolytica: ALK2, ALK3, ALK4, ALK5, ALK6 and ALK11.
(§2) The incubations were carried out on the model substrate constituted by lauric acid (C12.0), in the presence of NADPH.
(§3) The reaction mixtures were deposited on TLC plates, and then developed and analyzed.
(§4) In order to study the substrate specificity of these enzymes, the inventors incubated each microsomal preparation with free fatty acids of different size and at various levels of unsaturation (for example, myristic acid—C14:0, palmitic acid—C16:0, stearic acid—C18:0, oleic acid—C18:1 and linoleic acid—C18:2).
(§5) The expression of the proteins of the 6 members of the 6YP52 family cloned was carried out using a heterologous system specifically designed for the expression of cytochrome P450 enzymes, based on the pYeDP60 vector and the Saccharomyces cerevisiae WAT11 strain. The WAT11 strain was transformed with each of the pYeDP60 constructs using the lithium acetate LiAc method. The transformants were selected by plating out on YNB plates lacking uracil. The yeasts are left in culture and the expression of cytochrome P450 was induced as described in Pompon et al., 1996. For each transformant, the microsomes were prepared by manually breaking the cells using glass beads (0.45 mm in diameter) in 50 mM of a Tris-HCl buffer (pH 7.5) containing 1 mM EDTA and 600 mM of sorbitol. The homogenate was subjected to centrifugation (10 000 g-15 min) and the resulting supernatant was subjected to ultracentrifugation (100 000 g-1 h). The microsome pellet was resuspended in 50 mM Tris-HCl (pH 7.4), mM EDTA and 30% (v/v) of glycerol with a Potter-Elvehjem homogenizer. The volume of buffer used for resuspending the microsomes was determined by the approximate weight of the wet pellet of yeast obtained after growth (1 ml of buffer per 2 g of cell pellet). The total concentrations of protein in the microsomes were estimated using the Bradford test and homogenized at 15 mg/ml using the appropriate volume of resuspension buffer. The microsome preparation was stored at −20° C. All the experiments for the microsome preparations were carried out between 0 and 4° C.
(§6) The activity of the cytochrome P450 enzymes was evaluated in vitro using various radiolabeled fatty acids. The standard test (0.1 ml) contained […] sodium phosphate (pH 7.4), […] NADPH, a radiolabeled substrate (100 μM) and 0.15 mg of microsomal protein. The reactions were carried out in a waterbath at 27° C. with continuous shaking. The reaction is initiated by adding NADPH and stopped after 20 min by adding 20 μl of acetonitrile containing 0.2% of acetic acid.
(§7) The reaction mixtures were deposited directly on TLC plates covered with silica in order to separate the incubation products from the initial substrate. The plates were developed using an ether/petroleum ether/formic acid mixture (50:50:1, v/v/v). The plates were scanned using a radioactivity detector. The chromatograms resulting from the TLC make it possible to determine the degrees of conversion for each cytochrome P450/fatty acid combination, based on the radioactivity detected by the reader. The mobility of the products on the TLC plate is a good indication of the type of oxygenation reaction that was carried out on the substrate (i.e. hydroxylation, epoxidation, diacid formation).

[2] = test system: ALK2 (Alk2p, cytochrome P450 CYP52); assay: In vitro enzymatic assay: conversion of radiolabeled fatty acids by microsomes of S. cerevisiae WAT11 expressing ALK2 (TLC); conditions: yeast microsomes, NADPH; for Degree of conversion (%): gene ALK2, substrate 100 μM, ND: not detectable
Experimental: as §1, §2, §3, §4, §5, §6
as §7, with “The mobility of the products on the TLC plate is a good indication of the type of oxygenation reaction that was carried out on the substrate (i.e. hydroxylation, epoxidation, diacid formation).” left out

[3] = test system: ALK3 (Alk3p, cytochrome P450 CYP52); assay: In vitro enzymatic assay: conversion of radiolabeled fatty acids by microsomes of S. cerevisiae WAT11 expressing ALK3 (TLC, GC-MS); conditions: NADPH; for Products of conversion by Alk3p seen in TLC chromatograms: fresh microsomes, standardized total protein, duplicate; for Degree of conversion (%): gene ALK3, substrate 100 μM, ND: not detectable; for Reaction product of Alk3p identified by GC-MS (first product peak) / Reaction product of Alk3p identified by GC-MS (second peak, diacid): incubation with Alk3p microsomes, GC-MS of methylated/TMS derivatives
Experimental: as §1, §2, §3, §4
Preparations of fresh microsomes of yeast expressing Alk3p were carried out. The inventors standardized the total protein content and performed new incubations with lauric acid and palmitic acid and also the abovementioned three C18 fatty acids (stearic acid, oleic acid and linoleic acid). All the reactions were carried out in duplicate in the presence of NADPH for analysis by TLC and GC-MS.
as §5, §6
The reaction mixtures were deposited directly on TLC plates covered with silica in order to separate the incubation products from the initial substrate. The plates were developed using an ether/petroleum ether/formic acid mixture (50:50:1, v/v/v). The plates were scanned using a radioactivity detector.

[4] = test system: ALK11 (Alk11p, cytochrome P450 CYP52); assay: In vitro enzymatic assay: conversion of radiolabeled fatty acids by microsomes of S. cerevisiae WAT11 expressing ALK11 (TLC); conditions: yeast microsomes, NADPH; for Degree of conversion (%): gene ALK11, substrate 100 μM, ND: not detectable
Experimental: as §1, §2, §3, §4
as §5, with “The microsome preparation was stored at −20° C. All the experiments for the microsome preparations were carried out between 0 and 4° C.” left out
(§8) The activity of the cytochrome P450 enzymes was evaluated in vitro using various radiolabeled fatty acids. […]
The reaction mixtures were deposited directly on TLC plates covered with silica in order to separate the incubation products from the initial substrate. […] The plates were scanned using a radioactivity detector. The chromatograms resulting from the TLC make it possible to determine the degrees of conversion for each cytochrome P450/fatty acid combination, based on the radioactivity detected by the reader. […]

[5] = test system: ALK4 (Alk4p, cytochrome P450 CYP52); assay: In vitro enzymatic assay: conversion of radiolabeled fatty acids by microsomes of S. cerevisiae WAT11 expressing ALK4 (TLC); conditions: gene ALK4, substrate 100 μM, yeast microsomes, NADPH, ND: not detectable
Experimental: as §1, §2
The reaction mixtures were deposited on TLC plates, and then developed and analyzed. […]
The expression of the proteins of the 6 members of the 6YP52 family cloned was carried out using a heterologous system specifically designed for the expression of cytochrome P450 enzymes, based on the pYeDP60 vector and the Saccharomyces cerevisiae WAT11 strain. […] The volume of buffer used for resuspending the microsomes was determined by the approximate weight of the wet pellet of yeast obtained after growth (1 ml of buffer per 2 g of cell pellet). […]
as §8
The reaction mixtures were deposited directly on TLC plates covered with silica in order to separate the incubation products from the initial substrate. […] The plates were scanned using a radioactivity detector. […]

Row | Compound | Degree of conversion (%) [1] | Degree of conversion (%) [2] | Products of conversion by Alk3p seen in TLC chromatograms ([3]; TLC) | Degree of conversion (%) ([3]; yeast microsomes, TLC) | Reaction product of Alk3p identified by GC-MS (first product peak) [3] | Conversion of the fatty acid by Alk2p, in words [2] | Conversion of the fatty acid by Alk3p, in words ([3]; yeast microsomes, TLC) | Conversion of the fatty acid by Alk5p, in words [1] | Degree of conversion (%) [4] | Conversion of the fatty acid by Alk11p, in words [4] | Degree of conversion (%) [5] | Reaction product of Alk3p identified by GC-MS (second peak, diacid) [3]
1 | CCCCCCCCCCCCCCCC(=O)O [C16:0, palmitic acid] | 12% | 0.5% | – | – | – | – | – | – | – | – | – | –
2 | CCCCCCCCCCCCCCCCCC(=O)O [C18:0, stearic acid] | 2% | – | only an w-oxidation product | 3% | 18-hydroxystearic acid derivative | No significant conversion | – | – | – | – | – | –
3 | CCCCCCCCCCCC(=O)O [C12:0, lauric acid] | 24% | 7.3% | two products | 65% | 12-hydroxylauric acid derivative | capable of metabolizing | capable of metabolizing | capable of metabolizing | Traces | capable of metabolizing | – | –
4 | CCCCC/C=C\C/C=C\CCCCCCCC(=O)O [C18:2, linoleic acid] | 11% | – | two products | 35% | 18-hydroxylinoleic acid derivative | – | – | – | 4% | – | 3% | 1,18-octadeca-9,12-dienedioic derivative
5 | CCCCCCCCCCCCCC(=O)O [C14:0, myristic acid] | 27% | 1.1% | – | 68% | – | – | – | – | – | – | – | –
6 | CCCCCCCC/C=C\CCCCCCCC(=O)O [C18:1, oleic acid] | 13% | – | two products | 27% | 18-hydroxyoleic acid derivative | – | – | – | 2% | – | – | 1,18-octadeca-9-enedioic acid
